Data published in BigSolDB 2.1.

CCCCc1nc(Cl)c(CO)n1Cc1ccc(-c2ccccc2-c2nnn[n-]2)cc1.[K+]
solubility (mole fraction)
Settings | in cyclohexane | in ethanol | in ethyl acetate | in isopropanol | in methanol | in n-butyl acetate | in n-pentanol | in n-propanol
293.15 K | 3.4e-05 | 0.0381 | 0.00251 | 0.0027 | 0.0277 | 0.00271 | 0.0446 | 0.026
303.15 K | 2.87e-05 | 0.0473 | 0.00152 | 0.00279 | 0.0375 | 0.00238 | 0.0311 | 0.0272
313.15 K | 3.05e-05 | 0.0547 | 0.00252 | 0.00413 | 0.0445 | 0.000968 | 0.0287 | 0.0299
323.15 K | 2.72e-05 | 0.0702 | 0.00138 | 0.00547 | 0.0483 | 0.00121 | 0.0234 | 0.0376
333.15 K | 2.88e-05 | 0.0739 | 0.00288 | 0.00696 | 0.0508 | 0.00193 | 0.0205 | 0.0452
343.15 K | 2.59e-05 | 0.0785 | 0.00279 | 0.0117 | 0.0533 | 0.000907 | 0.0218 | 0.0499
